From PMC3747596 (PLoS ONE, 2013)
Where two headings read alike, the source gives them in different places.

How the values were obtained:
mice = conditions: cited from earlier work
[1] = Caco-2 cell monolayer permeation; conditions: human, Caco-2, pH 7.4
μ opioid receptor = molecular target: T1, μ opioid receptor (Homo sapiens, UniProt P35372); experiment: Radioligand displacement, μ; type: binding; conditions: binding curve File S1, Mu Opiod Receptor, [3H]DAMGO (0.3 nM), Standard Binding Buffer, read-out: Ki
T1 construct: expressed in transfected cells
T1 sequence (P35372 whole entry): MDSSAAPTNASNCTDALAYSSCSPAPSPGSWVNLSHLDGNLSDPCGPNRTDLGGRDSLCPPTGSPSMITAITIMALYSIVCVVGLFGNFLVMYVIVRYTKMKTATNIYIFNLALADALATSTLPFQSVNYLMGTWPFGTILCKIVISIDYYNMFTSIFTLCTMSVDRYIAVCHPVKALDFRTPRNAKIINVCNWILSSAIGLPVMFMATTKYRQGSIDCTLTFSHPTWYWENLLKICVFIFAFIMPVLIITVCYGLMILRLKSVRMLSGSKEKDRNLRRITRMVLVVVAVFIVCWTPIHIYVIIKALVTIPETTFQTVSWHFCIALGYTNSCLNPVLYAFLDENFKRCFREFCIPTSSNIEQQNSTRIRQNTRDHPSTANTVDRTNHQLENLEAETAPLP

Question: For `NCc1ccc2[nH]c3c(c2c1)CC1(O)C2Cc4ccc(O)c5c4C1(CCN2CC1CC1)C3O5` (stereo not shown) [5′-aminomethylnaltrindole], which toxic signs (mice; 20 mg/kg i.p.) is on record?
Answer: gasping and convulsions

Question: Which results are given for `O=C1CC[C@@]2(O)[C@H]3Cc4ccc(O)c5c4[C@@]2(CCN3CC2CC2)[C@H]1O5` [Naltrexone]?
Answer: Papp A→B at 120 min [1]: 59 ×10⁻⁶ cm/s; Papp B→A at 120 min [1]: 270 ×10⁻⁶ cm/s; efflux ratio at 120 min [1]: 5.7; LD50 (mice; mice, s.c.): 570 mg/kg

Question: For “DAM80: reference ligand of the mu opioid binding curve”, which Ki (μ opioid receptor; listed as DAM30) is on record?
Answer: 0.41 nM

Question: What about the Ki (μ opioid receptor) of the same compound?
Answer: 0.54 nM
